Reference: patent US11274132B2, “Combined preparations of PKM2 modulators and HMGB1” (Ruprecht-Karls-Universität Heidelberg, priority 2015, dated 2022)

Legend:
HT29 cells [1] = assay: Production of labeled CO2 (glucose and glutamine oxidation); assay type: cell-based, human; conditions: HT29 cells after HMGB1 treatment
ATP = assay: Cellular ATP after HMGB1 treatment; assay type: cell-based, human
colorectal cancer cells = assay: Crystal violet cytotoxicity assay, cell lines not given; assay type: cell-based; conditions: HMGB1 80 nM, 72 h
Experimental: (§1) Human colon carcinoma cell lines SW480, HCT116, HT29 and Caco2, the human glioblastoma cell line U251MG and the Natural killer cell line NK-92 Cl were purchased from ATCC. Cell lines were regularly tested for contamination by multiplex PCR performed in the Genomics and Proteomics Core Facility 2 (DKFZ, Heidelberg, Germany). For experiments, cells were cultured for no more than 10 passages. Rho zero cells were generated as described earlier 1. (Gdynia, G. et al. Danger signaling protein HMGB1 induces a distinct form of cell death accompanied by formation of giant mitochondria. Cancer research 70, 8558-8568). Cells used in the experiments were cultured in RPMI (#1640, colon carcinomas, NK cells) or DMEM high glucose (#41965-039, glioblastoma cells) medium. Rho zero cells were generated as described earlier (Gdynia, G. et al. ibd.). Briefly, cells were cultured in RPMI medium (10% FCS, 1% P/S) supplemented with 250 ng/ml ethidiumbromide, 50 μg/ml L-pyruvate and 5 mg/ml uridine over a period of 12 weeks. For cytotoxicity measurements, cells were cultured in 96-well plates, treated with recombinant human HMGB1 protein (Sigma-Aldrich®), glycyrrhizinic acid ((3β, 18α)-30-hydroxy-11, 30-dioxoolean-12-en-3-yl 2-O-β-D-glucopyranuronosyl-β-D-glucopyranosiduronic acid)) (Sigma-Aldrich®), 10 μM (non-toxic) or 100 μM (cytotoxic) P-M2tide (aa sequence: GGAVDDDpYAQFANGG; #BML-P239-0001; Enzo Life Sciences) or 100 μM ML-265 (Cayman Chemical), then cell viability was assessed by crystal violet staining (Gillies, R. J., Didier, N. & Denton, M. Determination of cell number in monolayer cultures. Analytical biochemistry 159, 109-113 (1986)). Malic enzyme 1 knock-down was performed with 40 nM siRNA using lipofectamine in 6-well plates followed by treatment with 80 nM HMGB1 for 72 h. Sequences of siRNA were: ME1, 5′-[…]-3′ and scrambled control 5′-CCUGCAGUACUUCAAGCGGtt-3′. PKM2 siRNA was from Santa Cruz. A nonspecific siRNA served as control (Dharmacon, Schwerte, Germany). For overexpression of PKM2 or ME1, cells were transfected with pCMV-PKM2 (Sino Biological Inc., Beijing, China) or pCMV-ME1 (OriGene, Rockville, Md., USA) using Lipofectamine 2000. For cytotoxicity measurements confluent cells were cultured in 96-well plates if not otherwise indicated. Cytotoxic activity of supernatants from stimulated NK cells was assessed in 96-well plates for 3 days with RPMI medium as reference. Recombinant human HMGB1 (10 ng, Sigma) suited as positive control. For mass isotopomer assays, cells were cultured in glucose- or glutamine-free medium supplemented with either uniformly labeled (U)-13C-D-glucose or U-13C-glutamine (Sigma-Aldrich®).

ATP synthase = assay: Respiratory chain complex activities in mitochondrial fractions; assay type: cell-based, human; conditions: colorectal cancer cell lines; HMGB1 80 nM, 24 h
Experimental: (§2) Enzymatic activities of respiratory chain complexes, glycolytic proteins and malic enzyme were determined in subcellular fractions as previously described (Kaminski, M. M. et al. T cell activation is driven by an ADP-dependent glucokinase linking enhanced glycolysis with mitochondrial reactive oxygen species generation. Cell reports 2, 1300-1315 (2012).Bruncko, M. et al. Naphthamidine urokinase plasminogen activator inhibitors with improved pharmacokinetic properties. Bioorganic & medicinal chemistry letters 15, 93-98, (2005)) using a computer-tuneable spectrophotometer (Spectramax Plus Microplate Reader, Molecular Devices; Sunny Vale, Calif., USA) operating in the dual wavelength mode; samples were analyzed in temperature-controlled 96-well plates in a final volume of 300 μl. Activity of ME1 was recorded in presence of increasing amounts of malic acid (0.02, 0.05, 0.1, 0.2, 0.5, 1, 2.5 mM). Vmax and Km were calculated using a Hanes-Woolf plot. In the presence of high substrate levels the Km for malic acid was similar in all three tested cell lines (SW480: 0.32 mM, HCT116: 0.30 mM, HT29: 0.31 mM). Vmax (mU/mg protein) values were 3.38 (SW480, 0.5-5.0 mM malic acid), 5.77 (HCT116, 0.5-5.0 mM malic acid) and 3.68 (HT29, 0.5-5.0 mM malic acid) and 1.68 (SW480, 0.02-0.2 mM malic acid), 3.24 (HCT116, 0.02-0.2 mM malic acid) and 1.89 (HT29, 0.02-0.2 mM malic acid). Two isoforms of ME1, mitochondrial (NAD(P)+dependent) ME3 and mitochondrial (NAD+dependent) ME2, had very low or no detectable activities (data not shown).
(§3) Cells were lysed in lysis buffer P (20 mM Tris-HCl (pH 7.4), 137 mM NaCl, 10% (v/v) glycerine, 1% Triton X-100, 2 mM EDTA, 100 mM phenylmethylsulfonyl fluoride and protease inhibitors (Complete mini from Roche). Lysates were centrifuged at 14,000×g (10 min) at 4° C. Total protein was measured by the Bradford (Bio-Rad) method. Soluble protein was resolved by SDS-PAGE, blotted onto nitrocellulose and incubated with one of the following antibodies: mouse monoclonal anti-β-actin (1:3,000, Sigma-Aldrich), rabbit anti PK M2 (1:1,000, Cell Signaling), rabbit anti-malic enzyme 1 (1:1,000, abcam). Appropriate secondary antibodies (1:3,000, horse-radish peroxidase-conjugated) were from Bio-Rad. Visualization was done by enhanced chemiluminescence technique (GE-Healthcare). Mitochondrial fractions were extracted using the ApoAlert Cell Fractionation Kit (Clontech) as described earlier (Gdynia, G. et al. BLOC1S2 interacts with the HIPPI protein and sensitizes NCH89 glioblastoma cells to apoptosis. Apoptosis: an international journal on programmed cell death 13, 437-447, (2008)).

[2] = test system: cytochrome c oxidase (COX); assay: as above; assay type: cell-based, human
Experimental: as §2, §3

complex I to III = assay: as above; assay type: cell-based, human; conditions: colorectal cancer cell lines; HMGB1 80 nM, 24 h
Experimental: as §2, §3

HT29 cells [3] = assay: Crystal violet cytotoxicity assay; assay type: cell-based
Experimental: as §1

[4] = test system: HCT116 colorectal cancer cells; assay: Crystal violet cytotoxicity assay; assay type: cell-based; conditions: 72 h
Experimental: as §1

[5] = test system: SW480 colorectal cancer cells; assay: Crystal violet cytotoxicity assay; assay type: cell-based; conditions: 72 h
Experimental: as §1

[6] = NK cell derived HMGB1 approx. 16 nM, recombinant human HMGB1 80 nM

Substance: HMGB1: recombinant human HMGB1 protein (Sigma-Aldrich); High Mobility Group Box 1 polypeptide, human, SEQ ID NO: 4
- decrease of glucose oxidation (HT29 cells [1]): ~50%
- increase of glutamine oxidation (HT29 cells [1]): ~35%
- ATP (ATP; HCT116 cells): substantial decrease
- ATP (ATP; SW480 cells): substantial decrease
- sensitivity of cells to HMGB1 after PKM2 down-regulation (siRNA) (colorectal cancer cells): sensitized
- sensitivity of cells to HMGB1 after PKM2 overexpression (colorectal cancer cells): more resistant
- ATP synthase activity (ATP synthase): not diminished
- COX activity ([2]; colorectal cancer cell lines, HMGB1 80 nM, 24 h): significantly lower activity levels
- COX activity ([2]; primary tumor tissue slices, HMGB1 160 nM, 72 h): potent inhibition
- electron flow from complex I to III (complex I to III): unchanged
- sensitivity of cells to HMGB1 (HT29 cells [3]; low to intermediate HMGB1 concentrations (16 to 80 nM)): resistant
- sensitivity towards HMGB1 cytotoxicity after down-regulation of ME1 (HT29 cells [3]; siRNA knock-down of ME1, HMGB1 80 nM, 72 h): sensitization
- cell death (cytotoxicity) [4, 6]: efficiently killed
- sensitivity of respiratory chain deficient (ρ0) cells to HMGB1 ([4]; ρ0 HCT116, HMGB1 160 nM): almost completely resistant
- cell death (cytotoxicity) [5, 6]: efficiently killed
- sensitivity of respiratory chain deficient (ρ0) cells to HMGB1 ([5]; ρ0 SW480, HMGB1 160 nM): almost completely resistant
